Laboratory results: US20110040086A1, “Novel Beta-Lactam Antibiotics, Methods for Their Production, and Their Use” (DRITTE PATENTPORTFOLIO BETEILIGUNGSGESELLSCHAFT MB, priority 2007, published 2011)

Assays:
[1] = logP value by HPLC according to Donovan et al.; conditions: for chromatographic logP: HPLC with methanol/0.1% phosphoric acid gradient, pH 2
Method: • Operating temperature 18-24° C. • Flow 1.5 mL/min • Linear gradient (methanol/0.1% phosphoric acid pH 2) from 10% to 100% methanol in 9.4 min, equilibrium time between 2 runs 6 min
ca. 0.5 mg of analyte is added to 0.5 ml of a standard solution (440 mg methyl phenyl sulfonate and 380 μl toluene in 150 mL methanol). 2 μl of this sample solution is injected.
Because the distribution coefficients of the two standards running in each test are known, the distribution coefficient of the analytes can be determined from the relationships of the analyte/standard retention times.

S. epidermidis 563 = assay: agar diffusion test (Test System II, multi-resistant germs); type: cell-based, Staphylococcus epidermidis
Method: (§1) The test substances are deposited in stepped quantities (10 μg, 50 μg, 100 μg) onto active ingredient carriers (sensi-discs). For this purpose, the test substances are dissolved in methanol or A. dest. according to their solubility. Each inoculated plate is fitted with 3 test sheets.
(§2) Test System II (Effect Against Multi-Resistant Germs)
(§3) For this purpose, bacteria is cultivated on Müller-Hinton-Agar II plates.
(§4) With 1-1.5 ml physiological saline solution, a bacteria suspension of McFarland 0.5 (corresponds to a bacteria density of 150×10^6 germs) is produced. Then, with a sterile glass rod, a small drop of bacteria suspension is placed on the Müller-Hinton-Agar plate and coated in three layers (vertical, horizontal, and transverse). Thereafter, the sensi-discs with the novel semi-synthetic test substances are placed on top. The fitted plates are incubated for 18-20 hours at 37° C. After incubation, the diameters of the zones of inhibition are read as a measure for the antimicrobial activity of the novel semi-synthetic test substances.

S. epidermidis 1071 = assay: as above; type: cell-based, Staphylococcus epidermidis
Method: as §1, §2, §3, §4

S. epidermidis 1068 = assay: as above; type: cell-based, Staphylococcus epidermidis
Method: as §1, §2, §3, §4

S. epidermidis 847 = assay: as above; type: cell-based, Staphylococcus epidermidis
Method: as §1, §2, §3, §4

S. aureus ATCC 6538 = assay: as above; type: cell-based, Staphylococcus aureus
Method: as §1, §2, §3, §4

S. aureus 38418 = assay: as above; type: cell-based, Staphylococcus aureus
Method: as §1, §2, §3, §4

S. epidermidis 125 = assay: as above; type: cell-based, Staphylococcus epidermidis
Method: as §1, §2, §3, §4

E. faecalis 945 = assay: as above; type: cell-based, Enterococcus faecalis; design: key: r = resistant (no detectable zone of inhibition)
Method: as §1, §2, §3, §4

B. subtilis AWD 166 = assay: agar diffusion test (antimicrobial effect); type: cell-based, Bacillus subtilis
Method: (§5) The seeding of bacteria in agar is selected so that, dense, but not confluent individual colonies develop after the incubation.
(§6) The inoculated nutrient agar is set in sterile Petri dishes and left standing for a few minutes for drying.
as §1
(§7) After a 20-hour incubation time at 37° C., the zones of inhibition around the individual test sheets could be measured. The diameter of the zone of inhibition is specified in mm.

[2] = tested on: Bacillus megaterium SBUG 1152; assay: agar diffusion test (Test System 1, antimicrobial effect); type: cell-based
Method: (§8) Test System 1 (Antimicrobial Effect)
(§9) The test germs Escherichia coli SBUG 1135 and Bacillus megaterium SBUG 1152 are drawn overnight (17 hours at 37° C.) in 5 ml nutrient medium II. The incubation is performed in a shaking incubator (INFORS AG CH 4103, Bottmingen, Switzerland) at a shaking frequency of 180 rpm.
(§10) After 17 h incubation time, Escherichia coli has reached a cell density of ca. 2.4×10^10 cells/ml and Bacillus megaterium a cell density of ca. 2.1×10^8 cells/ml.
as §5
Bacillus megaterium: 0.1 ml of non-diluted overnight culture (ÜN) in 10 ml nutrient agar corresponds to a cell count of 10^6.
as §6, §1, §7

[3] = tested on: Escherichia coli SBUG 1135; assay: as above; type: cell-based
Method: as §8, §9, §10, §5
Escherichia coli: the ÜN is diluted 1:100 with physiological saline solution, of which 0.1 ml is converted into 10 ml nutrient agar. That corresponds to a cell count of 10^6.
as §6, §1, §7

[4] = tested on: Enterococcus faecalis 769; assay: agar diffusion test (Test System II, multi-resistant germs); type: cell-based; design: key: r = resistant (no detectable zone of inhibition)
Method: as §1, §2, §3, §4

[5] = tested on: Staphylococcus aureus 315; assay: as above; type: cell-based; design: key: r = resistant (no detectable zone of inhibition)
Method: as §1, §2, §3, §4

S. aureus 520 = assay: as above; type: cell-based, Staphylococcus aureus; design: key: r = resistant (no detectable zone of inhibition)
Method: as §1, §2, §3, §4

[6] = tested on: S. aureus North Germany strain; assay: as above; type: cell-based, Staphylococcus aureus; design: key: r = resistant (no detectable zone of inhibition)
Method: as §1, §2, §3, §4

S. aureus 33490 = assay: as above; type: cell-based, Staphylococcus aureus; design: key: r = resistant (no detectable zone of inhibition)
Method: as §1, §2, §3, §4

S. aureus 526 = assay: as above; type: cell-based, Staphylococcus aureus; design: key: r = resistant (no detectable zone of inhibition)
Method: as §1, §2, §3, §4

S. aureus 34289 = assay: as above; type: cell-based, Staphylococcus aureus; design: key: r = resistant (no detectable zone of inhibition)
Method: as §1, §2, §3, §4

S. aureus 36881 = assay: as above; type: cell-based, Staphylococcus aureus; design: key: r = resistant (no detectable zone of inhibition)
Method: as §1, §2, §3, §4

S. aureus 39105 = assay: as above; type: cell-based, Staphylococcus aureus; design: key: r = resistant (no detectable zone of inhibition)
Method: as §1, §2, §3, §4

`CCOC(=O)c1cc(O)ccc1O` [2,5-dihydroxybenzoic acid ethylester] showed a chromatographic logP [1] of 2.65.

With `CC1=C(C(=O)O)N2C(=O)[C@@H](NC(=O)[C@H](N)c3ccc(O)cc3)[C@H]2SC1` [2a, Cefadroxil, reference compound] the “Diameter of zone of inhibition” value (S. epidermidis 563; Quantity n 0.019) was 24 mm, the “Diameter of zone of inhibition” value (S. epidermidis 563; Quantity n 0.1) was 28 mm and the “Diameter of zone of inhibition” value (S. epidermidis 563; Quantity n 0.19) was 32 mm. The “Diameter of zone of inhibition” value (S. epidermidis 1071; Quantity n 0.019) was 22 mm, the “Diameter of zone of inhibition” value (S. epidermidis 1071; Quantity n 0.1) was 28 mm and the “Diameter of zone of inhibition” value (S. epidermidis 1071; Quantity n 0.19) was 30 mm. For the same molecule, the “Diameter of zone of inhibition” value (S. epidermidis 1068; Quantity n 0.019) was 20 mm, the “Diameter of zone of inhibition” value (S. epidermidis 1068; Quantity n 0.1) was 24 mm and the “Diameter of zone of inhibition” value (S. epidermidis 1068; Quantity n 0.19) was 26 mm. For the same molecule, the “Diameter of zone of inhibition” value (S. epidermidis 847; Quantity n [mol] 0.019) was 12 mm, the “Diameter of zone of inhibition” value (S. epidermidis 847; Quantity n [mol] 0.1) was 26 mm and the “Diameter of zone of inhibition” value (S. epidermidis 847; Quantity n [mol] 0.19) was 30 mm. The “Diameter of zone of inhibition” value (S. aureus ATCC 6538; Quantity n 0.019) was 32 mm, the “Diameter of zone of inhibition” value (S. aureus ATCC 6538; Quantity n 0.1) was 38 mm and the “Diameter of zone of inhibition” value (S. aureus ATCC 6538; Quantity n 0.19) was 40 mm. For the same molecule, the “Diameter of zone of inhibition” value (S. aureus 38418; Quantity n [mol] 0.019) was 30 mm, the “Diameter of zone of inhibition” value (S. aureus 38418; Quantity n [mol] 0.1) was 34 mm and the “Diameter of zone of inhibition” value (S. aureus 38418; Quantity n [mol] 0.19) was 38 mm. The “Diameter of zone of inhibition” value (S. epidermidis 125; Quantity n 0.019) was 26 mm, the “Diameter of zone of inhibition” value (S. epidermidis 125; Quantity n 0.1) was 36 mm and the “Diameter of zone of inhibition” value (S. epidermidis 125; Quantity n 0.19) was 40 mm. For the same molecule, the “Diameter of zone of inhibition” value (E. faecalis 945; Quantity n 0.019) was “r”, the “Diameter of zone of inhibition” value (E. faecalis 945; Quantity n 0.1) was “r” and the “Diameter of zone of inhibition” value (E. faecalis 945; Quantity n 0.19) was “r”. The “Diameter of zone of inhibition” value (B. subtilis AWD 166; Quantity n 0.019) was 36 mm, the “Diameter of zone of inhibition” value (B. subtilis AWD 166; Quantity n 0.1) was 38 mm and the “Diameter of zone of inhibition” value (B. subtilis AWD 166; Quantity n 0.19) was 40 mm. The “Diameter of zone of inhibition” value ([2]; Quantity n 0.019) was 36^1 mm, the “Diameter of zone of inhibition” value ([2]; Quantity n 0.1) was 38 mm and the “Diameter of zone of inhibition” value ([2]; Quantity n 0.19) was 40 mm. For the same molecule, the chromatographic logP [1] was -3.5, the “Diameter of zone of inhibition” value ([3]; Quantity n 0.019) was 18 mm and the “Diameter of zone of inhibition” value ([3]; Quantity n 0.1) was 22 mm. The “Diameter of zone of inhibition” value ([3]; Quantity n 0.19) was 26 mm, the “Diameter of zone of inhibition” value ([4]; Quantity n 0.019) was “r” and the “Diameter of zone of inhibition” value ([4]; Quantity n 0.1) was 10 mm. For the same molecule, the “Diameter of zone of inhibition” value ([4]; Quantity n 0.19) was 14 mm, the “Diameter of zone of inhibition” value ([5]; Quantity n 0.019) was “r” and the “Diameter of zone of inhibition” value ([5]; Quantity n 0.1) was “r”. The “Diameter of zone of inhibition” value ([5]; Quantity n 0.19) was 8 mm, the “Diameter of zone of inhibition” value (S. aureus 520; Quantity n [mol] 0.019) was “r” and the “Diameter of zone of inhibition” value (S. aureus 520; Quantity n [mol] 0.1) was “r”. For the same molecule, the “Diameter of zone of inhibition” value (S. aureus 520; Quantity n [mol] 0.19) was 8 mm, the “Diameter of zone of inhibition” value ([6]; Quantity n 0.019) was “r” and the “Diameter of zone of inhibition” value ([6]; Quantity n 0.1) was “r”. The “Diameter of zone of inhibition” value ([6]; Quantity n 0.19) was 10 mm, the “Diameter of zone of inhibition” value (S. aureus 33490; Quantity n [μmol] 0.019) was 16 mm and the “Diameter of zone of inhibition” value (S. aureus 33490; Quantity n [μmol] 0.1) was 24 mm. The “Diameter of zone of inhibition” value (S. aureus 33490; Quantity n [μmol] 0.19) was 28 mm, the “Diameter of zone of inhibition” value (S. aureus 526; Quantity n 0.019) was “r” and the “Diameter of zone of inhibition” value (S. aureus 526; Quantity n 0.1) was “r”. The “Diameter of zone of inhibition” value (S. aureus 526; Quantity n 0.19) was “r”, the “Diameter of zone of inhibition” value (S. aureus 34289; Quantity n [mol] 0.019) was “r” and the “Diameter of zone of inhibition” value (S. aureus 34289; Quantity n [mol] 0.1) was “r”. For the same molecule, the “Diameter of zone of inhibition” value (S. aureus 34289; Quantity n [mol] 0.19) was “r”, the “Diameter of zone of inhibition” value (S. aureus 36881; Quantity n 0.019) was “r” and the “Diameter of zone of inhibition” value (S. aureus 36881; Quantity n 0.1) was 14 mm. For the same molecule, the “Diameter of zone of inhibition” value (S. aureus 36881; Quantity n 0.19) was 18 mm, the “Diameter of zone of inhibition” value (S. aureus 39105; Quantity n 0.019) was 16 mm and the “Diameter of zone of inhibition” value (S. aureus 39105; Quantity n 0.1) was 24 mm. For the same molecule, the “Diameter of zone of inhibition” value (S. aureus 39105; Quantity n 0.19) was 26 mm.

Work on `N[C@@H](C(=O)N[C@@H]1C(=O)N2C(C(=O)O)=C(Cl)CC[C@H]12)c1ccccc1` [2d, Loracarbef, reference compound] yielded a logP value ([1]; HPLC, methanol/0.1% phosphoric acid pH 2) of −3.13.
